# Measured values taken from paper PMC12024234, “Antioxidant, Anti-Inflammatory, and Oral Bioavailability of Novel Sulfonamide Derivatives of Gallic Acid” (Antioxidants, 2025).
# “Also recorded” adds a separate entry of the source.
# What was measured:
# [1] = target: T1, CYP2D6 (Homo sapiens, UniProt P10635); assay: Metabolism by cytochrome P450 2D6 (CypExpress), HPLC; assay type: in vitro ADME
# T1 construct: purchased Sigma Aldrich C4982
# [2] = target: T1, CYP2D6; assay: as above; assay type: in vitro ADME; settings: 4 h
# Description: The enzymatic activity of cytochrome P450 2D6 (CYP2D6) was evaluated following the CypExpress protocol (C4982, Sigma Aldrich, Darmstadt, Germany). The reaction buffer consisted of 5 mM glucose-6-phosphate (G6P), 2 mM nicotinamide adenine dinucleotide phosphate (NADP+), and 3,4,5-TMBS prepared in PBS at concentrations of 1000 and 1500 µM. Diltiazem was used as a positive control. The reaction was initiated by adding CYP2D6, and the mixture was vortexed for 5 min. The samples were then incubated at 37 °C with gentle shaking at 100 rpm for 4 h. The reaction was terminated by adding acetonitrile, followed by centrifugation at 800 rpm for 10 min. The supernatant was collected and analyzed using HPLC.
# [3] = system: HIEC-6 cells; assay: Cell viability CCK-8 assay in HIEC-6; assay type: cell-based, Human; settings: 24 h incubation
# Description: Human intestinal epithelial cells (HIEC-6), originally obtained from the American Type Culture Collection (ATCC), were cultured in Opti-MEM™ I Reduced Serum Medium (Cat. No. 31985) supplemented with 20 mM HEPES, 10 mM L-glutamine, 10 ng/mL epidermal growth factor, and 4% fetal bovine serum (FBS) (New York, NY, USA). Cells were maintained in a humidified 5% CO2 incubator at 37 °C. Cell viability was assessed using the CCK-8 assay, a colorimetric method based on the reduction of water-soluble tetrazolium salts (WST-8) to a water-soluble formazan dye, with the resulting color intensity proportional to the number of viable cells. Briefly, cells were harvested at approximately 80% confluence, detached using trypsin-EDTA, and centrifuged at 1000 rpm for 5 min. The cell pellet was resuspended in fresh medium, and the density was adjusted to 1 × 10^6 cells/mL. A volume of 100 µL (1 × 10^5 cells/well) was seeded into a 96-well plate, with one well containing the medium only as background control. […] Subsequently, 10 µL of CCK-8 reagent was added to each well, and the plate was incubated for 4 h. Absorbance was measured at 450 nm using a microplate reader, results are expressed as the mean ± standard deviation (SD).
# [4] = DPPH radical scavenging assay
# Description: The antioxidant properties of the compounds under study were examined using the 2,2-Diphenyl-1-picrylhydrazyl (DPPH) assay, following a well-established protocol. A DPPH solution was prepared at a concentration of 0.1 mM in methanol. […] To ensure proper reaction, the mixtures were kept in the dark and incubated at room temperature for 30 min. After incubation, the absorbance of each sample was measured at 517 nm using a UV-VIS spectrophotometer. Gallic acid was used as the reference standard, and methanol served as the blank control.
# The ability of the compounds to scavenge free radicals was determined by observing the reduction of DPPH at 517 nm, with lower absorbance values indicating higher antioxidant activity. The half-maximal inhibitory concentration (IC50), defined as the concentration of the compound needed to neutralize 50% of the DPPH radicals, was calculated from the dose–response curve. All experiments were performed in triplicate, and the results are reported as the mean of three independent trials. This method is widely recognized for its reliability and reproducibility in evaluating the antioxidant potential of chemical compounds.
# [5] = Oral bioavailability / pharmacokinetics in rats; assay type: in vivo, Sprague Dawley rats; settings: rat serum; for Tmax: rat, serum, po
# Description: Male Sprague Dawley rats, aged 7–9 weeks and weighing 220 ± 20 g on average, were used for bioavailability studies. The animals were housed in the Laboratory Animal Research Unit at the University of Petra Pharmaceutical Center under controlled conditions: a temperature of 23 ± 2 °C, humidity of 55–65%, and a 12 h light/dark cycle. Prior to the experiments, the rats underwent a 10-day acclimatization period with free access to standard food and water. All procedures complied with the University of Petra’s animal use guidelines, which adhere to the standards of the Federation of European Laboratory Animal Sciences Association (FELASA). The rats were divided into three groups (n = 6 per group) and administered suspensions of GA, 3,4,5-TMBS, or 3,4,5-THBS prepared in 5% carboxymethylcellulose. Each compound was administered orally at a dose of 100 mg/kg, based on previous studies. Blood samples were collected from the retro-orbital plexus at 0.5, 1, 2, 3, 4, 6, 10, and 24 h post-administration. The samples were centrifuged at 5000 rpm for 10 min, and the serum was mixed with acetonitrile in a 1:3 ratio. After a second centrifugation at 5000 rpm for 15 min, the supernatant was collected for high-performance liquid chromatography (HPLC) analysis. HPLC analysis was conducted using a Shimadzu Class VP series system equipped with an LC-10AT VP pump, an SIL-10AD VP autosampler, and an SCL-10AVP system (Shimadzu, Kyoto, Japan). A C18 column (25 cm × 4.6 mm, 5 μm) was used, with a photodiode array detector set to a wavelength range of 200–400 nm. The mobile phase for TMBS and THBS consisted of a 50:50 (v/v) mixture of deionized water and acetonitrile containing 0.1% trifluoroacetic acid, flowing at 1 mL/min. For GA, the mobile phase was a 70:30 mixture of methanol and a water/sulfuric acid solution (100:2), also at a flow rate of 1 mL/min. The retention times for THBS and TMBS were 2.39 and 3.47 min, respectively, while GA eluted at 2.4 min, all detected at 254 nm. Results were analyzed using Lab Solution Software LC (version 5.3) and represent the average of three measurements.
# [6] = target: T2, COX-2 (Homo sapiens, UniProt P35354); assay: Cyclooxygenase (COX-2) activity assay in HIEC-6 cell lysate; assay type: biochemical
# T2 construct: endogenous in cells; host or cells: HIEC-6 cell lysate
# T2 sequence (P35354 18-604): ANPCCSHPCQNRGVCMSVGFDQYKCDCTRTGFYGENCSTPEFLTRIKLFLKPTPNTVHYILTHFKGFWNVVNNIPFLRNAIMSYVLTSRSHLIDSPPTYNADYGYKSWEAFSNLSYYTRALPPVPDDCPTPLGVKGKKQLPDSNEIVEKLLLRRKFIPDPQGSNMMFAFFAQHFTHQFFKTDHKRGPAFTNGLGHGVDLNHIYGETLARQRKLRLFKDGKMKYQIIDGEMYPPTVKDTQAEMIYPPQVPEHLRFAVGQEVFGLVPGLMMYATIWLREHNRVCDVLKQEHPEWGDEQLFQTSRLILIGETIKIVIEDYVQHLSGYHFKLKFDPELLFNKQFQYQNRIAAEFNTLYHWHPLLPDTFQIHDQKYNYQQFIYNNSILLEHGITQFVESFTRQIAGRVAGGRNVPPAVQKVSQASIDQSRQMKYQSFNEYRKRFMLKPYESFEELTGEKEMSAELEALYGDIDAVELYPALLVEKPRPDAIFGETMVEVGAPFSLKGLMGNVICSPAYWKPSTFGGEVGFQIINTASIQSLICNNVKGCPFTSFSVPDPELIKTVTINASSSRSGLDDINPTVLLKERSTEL
# Description: Cyclooxygenase (COX-2) activity assay was performed in HIEC-6 cells according to the manufacturer’s instructions (ab204699). Resorufin standards (0–20 pmol/well) were used to generate a calibration curve for quantifying sample concentrations. HIEC-6 cells were centrifuged at 500× g for 3 min and washed with PBS. The cell pellet was lysed in an ice-cold lysis buffer containing 10% Triton X-100 and a protease inhibitor cocktail in PBS for 5 min. The lysate was then centrifuged at 12,000× g for 3 min at 4 °C, and the supernatant was collected and kept on ice. Protein concentration in the supernatant was determined using a Bradford assay, with a bovine serum albumin standard curve (0–2000 µg/mL). […] This mixture was added to a 96-well plate, and the reaction was initiated by adding arachidonic acid (COX-2 substrate) dissolved in NaOH solution. The enzymatic reaction produced fluorescent resorufin dye, which was measured at excitation/emission wavelengths of λEx/Em = 535/587 nm.
# [7] = male, Sprague Dawley, 100 mg/kg, n = 6
# T1 sequence (P10635 whole entry): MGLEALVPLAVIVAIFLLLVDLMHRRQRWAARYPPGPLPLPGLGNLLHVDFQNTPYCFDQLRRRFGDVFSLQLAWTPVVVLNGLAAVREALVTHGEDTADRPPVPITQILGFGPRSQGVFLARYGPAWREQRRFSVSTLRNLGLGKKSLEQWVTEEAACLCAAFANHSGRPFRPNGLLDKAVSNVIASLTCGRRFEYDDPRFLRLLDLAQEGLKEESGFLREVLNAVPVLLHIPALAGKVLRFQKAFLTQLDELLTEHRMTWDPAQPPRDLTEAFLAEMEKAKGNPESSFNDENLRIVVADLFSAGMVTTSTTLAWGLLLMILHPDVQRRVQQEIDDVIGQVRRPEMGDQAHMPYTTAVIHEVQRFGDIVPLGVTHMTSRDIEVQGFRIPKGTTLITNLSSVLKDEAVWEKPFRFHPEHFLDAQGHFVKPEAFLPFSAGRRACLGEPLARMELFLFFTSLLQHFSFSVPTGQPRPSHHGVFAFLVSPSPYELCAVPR
smiles,measurement,setting,value
"COc1ccc([C@@H]2Sc3ccccc3N(CCN(C)C)C(=O)[C@@H]2OC(C)=O)cc1 [Diltiazem, reference compound]",Metabolism by CYP2D6 (concentration),"[1]; 1000 µM, 1 h",828 ± 21.7 µM
same,Metabolism by CYP2D6 (concentration),"[1]; 1000 µM, 3 h",829 ± 78.1 µM
same,Metabolism by CYP2D6 (concentration),"[1]; 1500 µM, 1 h",1287 ± 12.8 µM
same,Metabolism by CYP2D6 (concentration),"[1]; 1500 µM, 3 h",1460 ± 133 µM
same,Metabolism by CYP2D6 (concentration),[2]; 1000 µM,849.91 ± 0.62 µM
same,Metabolism by CYP2D6 (concentration),[2]; 1500 µM,1235 ± 6.02 µM
"O=C(O)c1cc(O)c(O)c(O)c1 [GA, 3,4,5-trihydroxybenzoic acid, reference compound]",IC50,[3],47.6 ± 2.39 µM
same,IC50,"[3]; Homo sapiens, HIEC-6, 24 h",~47 µM
same,EC50,[4],~30 µM
same,DPPH radical scavenging activity,[4]; at 1000 µM,exceeding 90%
same,ROS scavenging activity,[4]; at 1000 µM (abstract),96%
same,Cmax,"[5]; male, Sprague Dawley, 100 mg/kg (table: 100 mg dose), n = 6",2140 ± 880 ng/mL
same,AUC(0-inf),[5]; [7],13000 ± 5620 ng·h/mL
same,AUC(0-t),[5]; [7],9320 ± 4610 ng·h/mL
same,CL/F,[5]; [7],148 mL/min/kg
same,half-life,[5]; [7],3.6 ± 0.94 h
same,MRT inf,"[5]; male, Sprague Dawley, 100 mg/kg, n = 6, read-out: MRT0–∞",7.66 ± 2.99 h
same,Tmax,"[5]; male, Sprague Dawley, 100 mg/kg",1.3 h
same,Tmax,[5]; [7],1.3 ± 0.22 h
same,Vz,"[5]; 100 mg/kg, n = 6",55.46 ± 23.99 (mg)/(μg/mL)
same,COX-2 inhibition compared to ibuprofen,[6]; 1 µM,weaker COX-2 inhibition than ibuprofen
same,COX-2 inhibition compared to ibuprofen,[6]; 50 µM,low COX-2 inhibition effect; also recorded: weaker COX-2 inhibition than ibuprofen
